In patent publication US20060183221A1, “Method for neural differentiation of embryonic stem cells using protease passaging techniques” (priority 2003, published 2006):

What was measured:
[1] = test system: differentiating mouse ES cells (ES-J1); test: Apoptosis (TUNEL staining) in differentiating mouse ES cells incubated with ceramide analogs; format: cell-based; conditions: 15 hours with 75 μM S16 or S18, or 35 μM C2-ceramide
Experimental: In vitro neural differentiation of mouse ES cells (ES-J1, ES-D3) followed a serum deprivation protocol as described previously (Hancock, et al., 2000, Biochem. Biophys. Res. Commun. 271: 418-421). The differentiation stages are outlined in FIG. 2. Briefly, ES cells were grown on gamma-irradiated feeder fibroblasts for four days in Knockout DMEM/15% Knockout serum replacement, supplemented with ESGRO (LIF; Chemicon; Cat No. ESG1106) at a concentration of […] medium. ES cells were then grown for another four days on gelatin-coated bacterial culture dishes without a fibroblast feeder layer, and were then grown for three days in Knockout DMEM/15% heat-inactivated ES qualified Fetal Bovine Serum, supplemented with 10^3 units LIF per ml of medium. Upon trypsinization, ES cells were transferred to bacterial culture dishes without gelatin, and embryoid body (EB) formation was induced for four days in Knockout DMEM/10% heat-inactivated ES qualified FBS without LIF (EB4 stage). On the fifth day, floating and loosely attached EBs were rinsed off and transferred to tissue culture dishes. The EBs were allowed to attach to the tissue culture dish surface by incubation for another 24 hours in Knockout DMEM with 10% heat-inactivated ES qualified fetal bovine serum. Neural differentiation due to serum deprivation was induced by cultivation of the EBs for three days in DMEM/F12 (50/50), supplemented with 1×N2 (Invitrogen/Life Technologies; Cat No. 17502, dilution of 1: 100) but without serum (EB8 stage). Serum-deprived EBs were then trypsinized, plated on poly-L-ornithine/laminin-coated tissue culture dishes and grown for four days in DMEM/F12 (50/50), supplemented with N2 and 10 ng/ml FGF-2, but without serum. his incubation period is referred to as neuroprogenitor (NP) stage due to commitment of neuroepithelial precursor cells to neuroprogenitor cells. These cells have committed during the EB stages and were expanded during the NP stage. NPs grown for 48 hours upon replating of trypsinized EBs were referred to as the NP2 stage. On the fifth day of NP formation, the medium was changed to Neurobasal (Invitrogen/Life Technologies; Cat No. 21103-049), with 5% heat-inactivated FBS, and the cells were incubated for another seven days. During this time, NPs fully differentiate to glial cells and neurons. Cells cultured for 24 hours or 96 hours upon changing the medium were referred to as the D1 or D4 stage, respectively.
ES cells were cultured and differentiated to the EB4, EB8, NP2, or D4 stage following the protocol as described above. The ceramide analog S18 was dissolved in ethanol at a concentration of 100 mM and then added to the cells at a final concentration of 75 μM in medium. The cells at the EB8 stage were incubated for 48 hours in the presence of the ceramide analog and were then transplanted into mouse brains.
Differentiating ES cells were grown on cover slips and fixed with 4% paraformaldehyde in phosphate-buffered saline (PBS). Fixed cells were permeabilized with 0.5% Triton X-100 in PBS for 5 minutes at room temperature and unspecific binding sites were saturated by incubation with 3% ovalbumin in PBS for 1 hour at 37° C. The cover slips were then incubated with 5 μg/ml primary antibody (anti-ceramide clone 15B4 mouse IgM, Alexis; anti-PAR-4 rabbit IgG, Santa Cruz; anti-PCNA rabbit IgG, Santa Cruz; anti-nestin clone 401 rat IgG, BD Pharmingen) in 0.1% ovalbumin/PBS, followed by incubation with the appropriate fluorescence-labeled secondary antibody (5 μg/ml Alexa 546 conjugated anti-mouse IgG, Molecular Probes; Alexa 488 conjugated anti-rabbit IgG, Molecular Probes, Cy3 conjugated anti-mouse IgM, Jackson) for 2 hours at 37° C. The nuclei were stained by treatment with 2 μg/ml Hoechst 33258 in PBS for 30 minutes at room temperature. Apoptotic nuclei were stained using the fluorescein FragEL TUNEL assay (Oncogene) according to the manufacturer's instructions. […]

[2] = test system: SSEA4 selected HESCs; conditions: 4 ng/ml FGF2 and 100 μM proline
Experimental: Essentially serum free embryoid bodies were generated from bulk passaged monolayer HESC colonies as described in Example 6, in the presence of 4 ng/ml FGF2 and 100 μM Proline, or in 4 ng/ml FGF2 with MEDII conditioned medium as a positive control.
Serum free embryoid bodies were cultured in suspension for 17 days, and were cut into pieces and seeded onto polyornithine/laminin coated slides at day 10 or 17. The explants were cultured on slides for 5 days prior to fixation at day 15 or 22, for immunostaining with anti-βIII-Tubulin and anti-Tyrosine Hydroxylase antibodies.

[3] = test system: SSEA4 selected HESCs
From the text: Essentially serum free embryoid bodies were generated from bulk passaged monolayer HESC colonies as described in Example 6, in the presence of the media set out below.

[4] = test system: SSEA4 selected HESCs; test: Differentiation of SSEA4 selected HESCs as serum free embryoid bodies in differing media formulations (cytospin counts, immunostaining); format: cell-based, human; conditions: L-proline conditions
Experimental: Serum free embryoid bodies were cultured in suspension for 3 weeks. Morphological differences were apparent between the cultures. […] Serum free embryoid bodies were cultured in suspension, and were cut into pieces, seeded onto polyornithine/laminin coated slides at day 21 and fixed at day 25. […] This was indicative that this differentiation protocol utilizes an intrinsic neural differentiation capacity of HESC, rather than exogenous neural inducing factors.
Cytospins of disaggregated serum free embryoid bodies were performed at day 21 to enable the counting of the proportion of βIII-Tubulin or TH positive cells generated in the different media formulations. […]
To count proportions of neurons in serum free embryoid bodies, cytospins were immunostained with anti-βIII-Tubulin (Sigma, #T8660) or mouse anti-TH monoclonal antibodies (PeIFreez Biologicals, #P80101-0), detected with alexa-488 conjugated anti-mouse secondary antibody and nuclei were stained with DAPI. Two color fluorescent images were taken under 10× magnification and merged, and double positive signals were scored as neuronal cell bodies, or TH+ neuronal cell bodies against the total nuclei count. A minimum of three randomly sampled fields and 250 or 100 nuclei for βIII-Tubulin or TH, respectively, were counted for each condition. […]

[5] = test system: SSEA4 selected HESCs; test: Neural differentiation of SSEA4 selected bulk passaged HESCs as serum free embryoid bodies with or without MEDII and S18, seeded and immunostained; format: cell-based, human
Experimental: Cultures were treated with or without 10 μM S18 from day 13 to day 17. After S18 treatment, serum free embryoid bodies were washed several times and cultured further until day 18. Serum free embryoid bodies were cut into pieces to seed down to polyornithine/laminin coated slides.
In the presence of MEDII, a consistently high proportion of the culture contained TH+ neurons, with the background of non-neural regions that was negative for the neuronal marker βIII-Tubulin typically lower than 10%. It was not determined whether the effect of MEDII induced more efficient neuralization or inhibited the generation of non-neural cell types. […] This proportion was determined by analysis of double staining of neural extensions for βIII-Tubulin and TH (FIG. 18), and overlaying Hoffman images with TH immunofluorescence (FIG. 19). The increase in the proportion of TH+ neurons in MEDII treated differentiations appeared to be due to the overall increase in neuronal differentiation, rather than an effect on the proportion of neurons that were dopaminergic, because the proportions of neurons that were TH+ in differentiations not exposed to MEDII was equally high. Another marker of DA cells, VMAT, was expressed in similarly high proportions of cells within the sfEBM cultures. TH+/VMAT−, TH−/VMAT+ and TH+/VMAT+ cells were observed (FIG. 20), possibly indicating temporal variability in the induction of expression of these markers prior to being co-expressed.

[6] = test system: Mouse neuroblastoma (F-11) cells; test: Induction of apoptosis in mouse neuroblastoma cells (Hoechst 33258 staining of condensed nuclei); format: cell-based; conditions: 24 hours
Experimental: Mouse neuroblastoma (F-11) cells were incubated for 24 hours in 0.1, 0.2, 0.5, or 1.0 μM of laurylgallate (Aldrich). Apoptosis was determined by punctate staining of condensed nuclei with Hoechst 33258 (Sigma, […] medium for 30 minutes at room temperature).

Which TUNEL stained cells ([1]; EB8 stage) does the source give for `CCCCCCCCCCCCCCCC(=O)NC(CO)CO` [S16, N-(2-hydroxy-1-(hydroxymethyl)ethyl)-palmitoylamide] here?
Its TUNEL stained cells is 45±10%.

And the TUNEL stained cells ([1]; NP2 stage)?
Its TUNEL stained cells is 70±10%.

For `O=C(O)[C@@H]1CCCN1` [proline, L-proline], which “seeded EB pieces that did not exhibit large networks of βIII-Tubulin+ cells” value [2] is on record?
The value was “less than 30%”.

What about the “neurons generated that were dopaminergic (co-expressing βIII-Tubulin and TH)” value ([2]; day 22) of the same molecule?
Its value is “greater than 90%”.

What about the “maintained in a proliferative state after proliferation of neural rosette structures” value ([3]; 50 μM L-proline) of the same molecule?
Its value is 34 weeks.

And the “maintained in a proliferative state in suspension culture after initial derivation” value ([3]; 50 μM L-proline)?
Its value is “more than 7 weeks”.

What about the “appearance of sfEBPs with low cell death and distinct neural rosette structures/folds” value ([3]; 50 μM Proline condition, around 3 weeks) of the same molecule?
Its value is “noticeably enhanced”.

What about the “TH+ neurons, of the cells in an embryoid body in suspension” value [4] of the same molecule?
Its value is “greater than 50%”.

Which results are given for FGF2: fibroblast growth factor 2?
area of seeded serum free embryoid body containing TH+ neurons ([5]; 10 μM S18 day 13 to 17, seeded day 18, fixed day 23): 30-70%; proportion of neurons expressing TH ([5]; βIII-Tubulin/TH double staining, seeded day 18, fixed day 23): very high proportion

Which TUNEL stained cells ([1]; EB8 stage) does the source give for `CCCCCCCCCCCCC/C=C/[C@@H](O)[C@H](CO)NC(C)=O` [C2-ceramide, N-acetyl sphingosine, reference compound] here?
The TUNEL stained cells was 45±10%.

What about the TUNEL stained cells ([1]; NP2 stage) of the same molecule?
Its TUNEL stained cells is 70±10%.

For `CCCCCCCCCCCCOC(=O)c1cc(O)c(O)c(O)c1` [laurylgallate, n-dodecyl ester of 3,4,5-trihydroxybenzoic acid], which cells undergoing apoptosis ([6]; 0.5 μM) is on record?
The cells undergoing apoptosis was 50%.

And the cells undergoing apoptosis ([6]; 1.0 μM)?
The cells undergoing apoptosis was 100%.
